Experimental data: patent US4062948A, “Dihydromocimycin antibiotics” (Gist-Brocades N.V., priority 1970, dated 1977)
≈ marks a conversion by molar mass, not a printed value.

Experiments:
[1] = system: microorganism causing Treponema dysentery; assay: pigs infected with Treponema dysentery (Example VI); format: in vivo
Text: Twenty pigs, 3 months old, were infected with the microorganism causing Treponema dysentery by administering to them feed mixed with a homogenous mixture of contents of the intestines and intestinal mucous membranes of two animals suffereing from the disease. The infected pigs were divided into four groups of five animals each and the animals were fed with the feed as a slurry diluted 1:1 with water for 1 week. The total amount of feed per animal was 1.2 kg each day and was given in two portions.
After 5 days, the first symptoms of the disease were observed from the thin faeces and confirmed by a microbiological investigation of the faeces and […] a week, the animals were treated as follows:
group 2: 100 ppm of tylosin were added to the feed;
group 3: 25ppm of dihydromocimycin were added to the feed; and
group 4: 50 ppm of dihydromocimycin were added to the feed.
The antibiotic-enriched feed was administered for a week. After that week, feed without any antibiotic was given again. Recovery from the infection was observed from the weights of the animals and from inspection samples of the faeces, macroscopically from their consistencies, and microscopically by means of a specific immuno-fluoroescence technique. During the test, one animal of each of groups 1, 3 and 4 died.
The results are shown in the following Table wherein the weights indicated are the averages at that time of the still living animals. The consistency of the faeces is indicated as follows:
+ means thin liquid; ± means thick liquid; - means normal. The results of the immuno-fluorescence technique are indicated quantitatively by indicating the number of Treponemas in the visual field: 5 means very crowded; 4 means many; 3 means about 10 Treponemas; 2 means 1 or 2 Treponemas, 1 means more visual fields necessary to find one Treponema, and - means negative.

[2] = system: microorganism causing Treponema dysentery; assay: experiments against the microorganism causing Treponema dysentery
[3] = system: Diplococcus pneumoniae A 188; assay: micro liquid serial dilution test (Table II); format: cell-based; details: Streptococcus pneumoniae, A188; 18 hours at 30° C or 37° C; read-out: Minimum inhibitory concentration
Method: (§1) The microbiological activity of the antibiotic preparation towards a number of micoorganisms has been determined by a micro liquid serial dilution test:
(§2) A stock solution of the test compounds at a concentration of 200 μg/ml in 0.05 molar phosphate buffer at a pH of 6.5 was prepared and serial 1:1 dilutions were made with a liquid medium inoculated with the test organism, using conventional glass spot-test plates. The plates were incubated 18 hours at 30° C or 37° C. The minimum inhibitory concentration (MIC) which is the smallest concentration of compound completely inhibiting the growth of the test organism is read and calculated in μg/ml.

[4] = system: Escherichia coli NCTC 8196; assay: micro liquid serial dilution test (Table II); format: cell-based; details: NCTC8196, 18 hours at 30° C or 37° C, read-out: Minimum inhibitory concentration
Method: as §1, §2

[5] = system: Haemophilus influenzae A 773; assay: micro liquid serial dilution test (Table II); format: cell-based; details: A773, 18 hours at 30° C or 37° C, read-out: Minimum inhibitory concentration
Method: as §1, §2

[6] = system: Micrococcus flavus A 54; assay: micro liquid serial dilution test (Table II); format: cell-based; details: A54, 18 hours at 30° C or 37° C, read-out: Minimum inhibitory concentration
Method: as §1, §2

[7] = system: Mycoplasma gallisepticum K 514; assay: micro liquid serial dilution test (Table II); format: cell-based
Method: as §1, §2

[8] = system: Mycoplasma suipneumoniae A 2174; assay: micro liquid serial dilution test (Table II); format: cell-based; details: Mesomycoplasma hyopneumoniae, A2174; 18 hours at 30° C or 37° C; read-out: Minimum inhibitory concentration
Method: as §1, §2

[9] = system: Mycoplasma synoviae A 2082; assay: micro liquid serial dilution test (Table II); format: cell-based; details: Mycoplasmopsis synoviae, A2082; 18 hours at 30° C or 37° C; read-out: Minimum inhibitory concentration
Method: as §1, §2

[10] = system: Proteus mirabilis H 3; assay: micro liquid serial dilution test (Table II); format: cell-based; details: H3, 18 hours at 30° C or 37° C, read-out: Minimum inhibitory concentration
Method: as §1, §2

[11] = system: Pseudomonas aeruginosa L 94; assay: micro liquid serial dilution test (Table II); format: cell-based; details: L94, 18 hours at 30° C or 37° C, read-out: Minimum inhibitory concentration
Method: as §1, §2

[12] = system: Staphylococcus aureus A 321; assay: micro liquid serial dilution test (Table II); format: cell-based; details: A321, 18 hours at 30° C or 37° C, read-out: Minimum inhibitory concentration
Method: as §1, §2

[13] = system: Streptococcus haemolyticus A 266; assay: micro liquid serial dilution test (Table II); format: cell-based; details: A266, 18 hours at 30° C or 37° C, read-out: Minimum inhibitory concentration
Method: as §1, §2

[14] = system: Proteus morganii 2241; assay: micro liquid serial dilution test (Table II); format: cell-based; details: Morganella morganii, 18 hours at 30° C or 37° C, recently isolated hospital strain, read-out: Minimum inhibitory concentration
Method: as §1, §2
(§3) wherein ') indicates penicillinase-producer; ") indicates recently isolated hospital strain.

[15] = system: Pseudomonas aeruginosa 2396; assay: micro liquid serial dilution test (Table II); format: cell-based; details: 18 hours at 30° C or 37° C, recently isolated hospital strain, read-out: Minimum inhibitory concentration
Method: as §1, §2, §3

[16] = system: Staphylococcus aureus A 355; assay: micro liquid serial dilution test (Table II); format: cell-based; details: A355, 18 hours at 30° C or 37° C, penicillinase-producer, read-out: Minimum inhibitory concentration
Method: as §1, §2, §3

[17] = system: Staphylococcus aureus L 160a; assay: micro liquid serial dilution test (Table II); format: cell-based; details: 18 h, read-out: Minimum inhibitory concentration
Method: as §1, §2, §3

[18] = system: rats; assay: three-month oral toxicity in rats; format: in vivo; details: up to 0.1% in the diet, three months
Text: (§4) The toxicity of the antibiotic has been studied in various animals.

[19] = system: chickens; assay: three-month oral toxicity in chickens; format: in vivo; details: up to 0.1% in the diet, three months
Text: as §4

[20] = growth promotion in slaughter chickens (Example II); format: in vivo; details: feed additive
Text: Slaughter chickens are given mocimycin in the form of the sodium salt obtained in Example 1, in a mixture with component of the feed (wheat flour), the amount of antibiotic in the feed (based on the weight of the feed) being as specified in the following Table, which gives the weight of the chickens after 3, 5 and 7 weeks.

[21] = dihydromocimycin 50 ppm, after 3 weeks, one symbol per animal

Question: With `CC=CC=CC1OC(O)(C(CC)C(=O)NCC=CC=C(C)C(OC)C(C)C2OC(C=CC=CC=C(C)C(=O)C3=C(O)CCNC3=O)C(O)C2O)C(O)C(O)C1(C)C` (centres unmarked) [dihydromocimycin] as the compound, how does the “activity relative to tylosin” value ([1]; administered amounts taken into account) read?
Answer: at least 4 times

Question: What about the Weights ([1]; dihydromocimycin 25 ppm group, after 1 week (start of antibiotics)) of the same compound?
Answer: 21.3 kg

Question: What about the Weights ([1]; dihydromocimycin 25 ppm group, just before infection (baseline)) of the same compound?
Answer: 24.2 kg

Question: What about the Weights ([1]; dihydromocimycin 25 ppm, after 2 weeks) of the same compound?
Answer: 20.2 kg

Question: And the Weights ([1]; dihydromocimycin 25 ppm, after 3 weeks)?
Answer: 24.0 kg

Question: What about the Weights ([1]; dihydromocimycin 50 ppm group, after 1 week (start of antibiotics)) of the same compound?
Answer: 21.6 kg

Question: What about the Weights ([1]; dihydromocimycin 50 ppm group, just before infection (baseline)) of the same compound?
Answer: 23.4 kg

Question: And the Weights ([1]; dihydromocimycin 50 ppm, after 2 weeks)?
Answer: 21.2 kg

Question: What about the Weights ([1]; dihydromocimycin 50 ppm, after 3 weeks) of the same compound?
Answer: 23.0 kg

Question: And the Faeces consistency [1, 21]?
Answer: -- +-

Question: What about the Immunofluorescence [1, 21] of the same compound?
Answer: -- -- -- --

Question: And the “speed of cure compared with tylosin” value ([1]; faeces consistency and immunofluorescence)?
Answer: cured markedly faster than the animals treated with tylosin

Question: What about the “animals died during the test” value ([1]; group 3, dihydromocimycin 25 ppm) of the same compound?
Answer: one

Question: What about the “animals died during the test” value ([1]; group 4, dihydromocimycin 50 ppm) of the same compound?
Answer: one

Question: What about the “treatment of Treponema dysentery compared with tylosin and mocimycin” value [2] of the same compound?
Answer: superior to tylosin (and also to mocimycin)

Question: What about the “activity against tylosin-resistant strains” value ([2]; tylosin-resistant strains) of the same compound?
Answer: active against tylosin-resistant strains

Question: Which results are given for `CC=CC=CC1OC(O)(C(CC)C(=O)NCC=CC=C(C)C(OC)C(C)C2OC(C=CC=CC=C(C)C(=O)c3c(O)cc[nH]c3=O)C(O)C2O)C(O)C(O)C1(C)C` (centres unmarked) [mocimycin]?
Answer: MIC [3]: 1 µg/mL (≈ 1.25 µM); MIC [4]: 50 µg/mL (≈ 62.7 µM); MIC [5]: 2 µg/mL (≈ 2.51 µM); MIC [6]: 4 µg/mL (≈ 5.02 µM); MIC ([7]; Mycoplasmoides gallisepticum, K514, 18 hours at 30° C or 37° C, read-out: Minimum inhibitory concentration): 0.1 µg/mL (≈ 0.125 µM); activity against Mycoplasma gallisepticum ([7]; in vitro, summary of Table II): high activity; MIC [8]: 1 µg/mL (≈ 1.25 µM); MIC [9]: 1 µg/mL (≈ 1.25 µM); MIC [10]: 50 µg/mL (≈ 62.7 µM); MIC [11]: > 100 µg/mL; MIC [12]: 100 µg/mL (≈ 125 µM); MIC [13]: 2 µg/mL (≈ 2.51 µM); MIC [14]: 100 µg/mL (≈ 125 µM); MIC [15]: > 100 µg/mL; MIC [16]: 100 µg/mL (≈ 125 µM); MIC [17]: > 200 µg/mL; undesired pharmacological effect [18]: does not result in any undesired pharmacological effect; undesired pharmacological effect [19]: does not result in any undesired pharmacological effect; growth of the chickens [20]: an increase in growth
